In ChEMBL document CHEMBL1201862, “PubChem BioAssay data set” (2004):
Calls of active or inactive are those of the source.

Experiments:
[1] = inhibitors of firefly luciferase expression or activity, dose response, H4 neuroglioma cells, luminescence (AID 1990); assay type: functional, cell-based
[2] = Luminescence Cell-Based Dose Response HTS to Identify Inhibitors of 5'UTR Stem-Loop Driven Prion Protein mRNA Translation in H4 Neuroglioblastoma Cells. [Related pubchem assays: 1827 (Project Summary), 1813 (Primary HTS)]; assay type: functional
[3] = target: SUMO-activating enzyme (Homo sapiens, UniProt Q9UBT2); test: SUMOylation inhibitor hit validation, confirmation, SUMOylation inhibitor project, biochemical, AlphaScreen (AID 2018); assay type: functional
SUMO-activating enzyme, sequence (Q9UBE0 whole entry): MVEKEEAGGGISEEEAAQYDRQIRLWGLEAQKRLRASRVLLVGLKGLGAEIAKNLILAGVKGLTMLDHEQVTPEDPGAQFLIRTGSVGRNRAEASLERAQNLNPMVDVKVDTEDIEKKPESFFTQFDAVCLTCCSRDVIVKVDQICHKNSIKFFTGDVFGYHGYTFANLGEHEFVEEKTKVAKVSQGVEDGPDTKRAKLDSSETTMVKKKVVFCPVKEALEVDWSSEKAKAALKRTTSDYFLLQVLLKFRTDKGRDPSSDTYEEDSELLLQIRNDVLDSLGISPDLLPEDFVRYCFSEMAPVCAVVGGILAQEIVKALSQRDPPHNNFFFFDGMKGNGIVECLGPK
SUMO-activating enzyme, sequence (Q9UBT2 whole entry): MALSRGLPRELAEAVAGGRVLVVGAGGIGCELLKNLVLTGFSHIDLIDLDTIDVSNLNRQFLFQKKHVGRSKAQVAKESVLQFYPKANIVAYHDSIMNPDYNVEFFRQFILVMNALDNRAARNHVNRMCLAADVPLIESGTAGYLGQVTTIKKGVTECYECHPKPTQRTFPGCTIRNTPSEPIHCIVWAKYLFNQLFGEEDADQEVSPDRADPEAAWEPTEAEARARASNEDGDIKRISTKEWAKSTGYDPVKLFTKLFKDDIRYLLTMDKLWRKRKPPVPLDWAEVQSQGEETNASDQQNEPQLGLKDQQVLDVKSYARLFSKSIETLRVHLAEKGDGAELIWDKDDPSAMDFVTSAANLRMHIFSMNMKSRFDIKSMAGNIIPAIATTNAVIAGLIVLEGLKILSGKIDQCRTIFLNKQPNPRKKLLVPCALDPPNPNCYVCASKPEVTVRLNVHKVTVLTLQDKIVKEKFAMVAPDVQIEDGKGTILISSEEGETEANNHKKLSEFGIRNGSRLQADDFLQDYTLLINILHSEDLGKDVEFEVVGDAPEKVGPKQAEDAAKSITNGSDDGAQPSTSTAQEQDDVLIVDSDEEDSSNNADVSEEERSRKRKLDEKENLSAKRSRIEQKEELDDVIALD

[4] = inhibitors of SNCA 5'UTR-driven reporter translation, confirmation, H4 neuroglioma cells, luminescence (AID 1988); assay type: functional, cell-based
[5] = system: CHO-K1; test: (§1) Counterscreen for antagonists of the orexin 1 receptor (OX1R; HCRTR1): Homogeneous time resolved fluorescence (HTRF)-based cell-based dose response assay to identify antagonists of the parental CHO-K1 cell line. [Related pubchem assays (depositor defined):AID434989, AID435008, AID463079, AID485270, AID492963, AID492964, AID492965, AID493232, AID504699, AID504701]; assay type: functional; conditions: Cricetulus griseus
[6] = as §1, with “Fluorescence-based” for “Homogeneous time resolved fluorescence (HTRF)-based”, “cell-based high throughput” for “cell-based”, “CHO” for “CHO-K1”; assay type: functional
[7] = target: T1, Orexin/Hypocretin receptor type 1 (Homo sapiens, UniProt O43613); test: Homogeneous Time Resolved Fluorescence (HTRF)-based cell-based high throughput dose response assay for antagonists of the orexin 1 receptor (OX1R; HCRTR1). [Related pubchem assays (depositor defined):AID434989, AID435008, AID463079, AID485270, AID492963, AID492964, AID492965, AID493232, AID504717, AID504718]; assay type: functional
T1 sequence (O43613 whole entry): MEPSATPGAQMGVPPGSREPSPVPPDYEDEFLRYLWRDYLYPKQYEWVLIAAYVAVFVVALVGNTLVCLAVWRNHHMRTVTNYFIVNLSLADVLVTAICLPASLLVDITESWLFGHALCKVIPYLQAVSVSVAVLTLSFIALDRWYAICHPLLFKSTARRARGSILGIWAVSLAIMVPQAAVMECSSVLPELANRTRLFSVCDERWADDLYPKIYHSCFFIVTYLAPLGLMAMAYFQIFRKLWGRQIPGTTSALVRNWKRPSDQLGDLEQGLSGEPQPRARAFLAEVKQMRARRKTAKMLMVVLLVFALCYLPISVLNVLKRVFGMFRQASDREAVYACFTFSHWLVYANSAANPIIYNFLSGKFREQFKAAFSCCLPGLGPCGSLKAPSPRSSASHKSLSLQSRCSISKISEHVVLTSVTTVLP

[8] = target: T1, Orexin/Hypocretin receptor type 1; test: Fluorescence-based cell-based high throughput dose response assay for antagonists of the orexin 1 receptor (OX1R; HCRTR1). [Related pubchem assays (depositor defined):AID434989, AID435008, AID463079, AID485270, AID492963, AID492964, AID492965, AID493232, AID504717, AID504718]; assay type: functional
[9] = target: T2, Orexin receptor type 2 (Homo sapiens, UniProt O43614); test: Counterscreen assay for antagonists of the orexin 1 receptor (OX1R; HCRTR1): Fluorescence-based cell-based dose response assay for antagonists of the orexin 2 receptor (OX2R; HCRTR2), run by assay provider.; assay type: functional
T2 sequence (O43614 whole entry): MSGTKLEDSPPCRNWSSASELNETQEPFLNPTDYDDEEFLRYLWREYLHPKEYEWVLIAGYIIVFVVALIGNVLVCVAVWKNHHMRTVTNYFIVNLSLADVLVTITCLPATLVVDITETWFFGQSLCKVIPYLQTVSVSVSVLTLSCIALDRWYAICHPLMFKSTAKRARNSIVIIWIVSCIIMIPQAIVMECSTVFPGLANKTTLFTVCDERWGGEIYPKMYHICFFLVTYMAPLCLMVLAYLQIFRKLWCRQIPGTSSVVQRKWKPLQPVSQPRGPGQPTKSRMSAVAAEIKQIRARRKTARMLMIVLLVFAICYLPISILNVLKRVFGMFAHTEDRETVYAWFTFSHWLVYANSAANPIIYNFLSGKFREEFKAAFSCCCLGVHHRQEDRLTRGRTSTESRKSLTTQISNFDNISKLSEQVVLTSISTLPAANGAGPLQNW

[10] = target: T2, Orexin receptor type 2; test: Counterscreen assay for antagonists of the orexin 1 receptor (OX1R; HCRTR1): Homogeneous Time Resolved Fluorescence (HTRF)-based cell-based dose response assay for antagonists of the orexin 2 receptor (OX2R; HCRTR2), run by assay provider.; assay type: functional

Row | Structure (SMILES) | EC50 [1] | EC50 [2] | IC50 [3] | EC50 [4] | IC50 [5] | IC50 [6] | IC50 [7] | IC50 [8] | IC50 [9] | IC50 [10]
1 | C=CCn1c(N)c(C(=O)Nc2ccccc2)c2nc3ccccc3nc21 | 22 µM (active) | > 120 µM (not active) | 14.5 µM (active) | > 120 µM (not active) | – | – | – | – | – | –
2 | COc1ccc2c(c1)nc(O)c1sc3ccccc3c12 | – | – | – | – | > 66.2 µM (inactive) | > 49.7 µM (inactive) | 2.49 µM (active) | 7.77 µM (active) | 5.5 µM (active) | > 50 µM (inactive)
3 | CNc1nc(Nc2ccc(C)c(Cl)c2)c2cnn(C)c2n1 | – | – | – | – | > 66.2 µM (inactive) | > 49.8 µM (inactive) | 2.07 µM (active) | 14.4 µM (inactive) | > 88.8 µM (inactive) | > 50 µM (inactive)
